Assay results from patent publication US20250270170A1, “2,3-DIMETHOXY-5-METHYL-1,4-BENZOQUINONE ALKYL ALCOHOL DERIVATIVE AND USE THEREOF” (BEIJING ANJIANXI BIO-MEDICAL TECHNOLOGY CO., LTD., priority 2021, published 2025).

Legend:
[1] = Example 3: body weight of NCI-N87 tumor-bearing nude mice; assay type: in vivo, BALB/c nude mice
Procedure: The NCI-N87 cells in the logarithmic growth phase were collected, counted and resuspended in a serum-free RPMI-1640 medium, and the cell concentration was adjusted to 5×10^7 cells/mL. The cells were pipetted with a pipette to disperse them evenly, and the cells were put into a 50-mL centrifuge tube, which was placed in an ice box. A 1-mL syringe was used to draw the cell suspension, which was injected subcutaneously into the axilla of the front right limb of a nude mouse. Each animal was inoculated with 100 μL (5×10^6 cells/mouse) to establish an NCI-N87 transplanted tumor model in nude mice. After the inoculation, the animal status and tumor growth were regularly observed, and the tumor diameter was measured using an electronic vernier caliper. The data were input into an Excel spreadsheet to calculate the tumor volume. When the tumor volume reached 100 to 300 mm^3, 72 animals in good health and with similar tumor volumes were selected and divided into 9 groups (n=8) using randomized block method. The day of grouping was regarded as the first day of the assay (D1). After the start of the assay, the tumor diameter was measured twice a week, the tumor volume was calculated, and the animal body weight was also weighed and recorded. [table] The calculation formula of animal weight loss rate is: wherein BWt represents the animal body weight measured each time during the administration period; BWinitial represents the animal body weight when being grouped for administration. The assay data were calculated and processed statistically using Microsoft Office Excel 2007 software. Unless otherwise specified, the data were expressed as mean±standard error (Mean±SE), and t-test was used for comparison between two groups.

[2] = Example 9: serum urea nitrogen (BUN) at the end of the assay; assay type: in vivo, nude mice; conditions: mouse, in vivo
Procedure: On the last day of the assay, CO2 inhalation anesthesia was used on the animals 1 hour after the administration (R01). Blood was collected through the heart, and a part of the whole blood was added with EDTA-K2 for anticoagulation. The plasma was separated by centrifugation at 4° C. and 1500 g for 10 minutes. The plasma was collected, and stored in a −40° C. to −20° C. freezer (if necessary, it can be used for the determination of the plasma drug concentration). No anticoagulant was added to the other part of the whole blood, and the serum was separated by centrifugation after the blood coagulated, which was used for the detection of blood urea nitrogen. After the blood collection, the tumor tissue was collected, weighed and photographed. Then, the tumor was divided into two parts, quickly cryopreserved by liquid nitrogen, and transferred to a −90° C. to −60° C. freezer for storage. Bilateral kidneys were collected and fixed in 10% formalin.

SMILES: COC1=C(OC)C(=O)C(CCCCCCCCCCOC(=O)Cc2c(C)n(C(=O)c3ccc(Cl)cc3)c3ccc(OC)cc23)=C(C)C1=O [compound of formula (I)]
- Mean animal body weight ([1]; D13, 2 mg/kg i.g. BID×28): 18.3 ± 0.4 g
- Mean animal body weight ([1]; D13, 6 mg/kg i.g. BID×28): 17.6 ± 0.3 g
- Mean animal body weight ([1]; D13, 18 mg/kg i.g. BID×28): 17.9 ± 0.5 g
- Mean animal body weight ([1]; D16, 2 mg/kg i.g. BID×28): 18.2 ± 0.5 g
- body weight loss rate ([1]; D16, 2 mg/kg i.g. BID×28): (0.41%)
- Mean animal body weight ([1]; D16, 6 mg/kg i.g. BID×28): 17.6 ± 0.3 g
- body weight loss rate ([1]; D16, 6 mg/kg i.g. BID×28): (0.28%)
- Mean animal body weight ([1]; D16, 18 mg/kg i.g. BID×28): 17.7 ± 0.4 g
- body weight loss rate ([1]; D16, 18 mg/kg i.g. BID×28): (1.0%)
- Mean animal body weight ([1]; D20, 2 mg/kg i.g. BID×28): 18.2 ± 0.4 g
- body weight loss rate ([1]; D20, 2 mg/kg i.g. BID×28): (0.27%)
- Mean animal body weight ([1]; D20, 6 mg/kg i.g. BID×28): 17.5 ± 0.4 g
- body weight loss rate ([1]; D20, 6 mg/kg i.g. BID×28): (0.50%)
- Mean animal body weight ([1]; D20, 18 mg/kg i.g. BID×28): 17.8 ± 0.3 g
- body weight loss rate ([1]; D20, 18 mg/kg i.g. BID×28): (0.56%)
- Mean animal body weight ([1]; D23, 2 mg/kg i.g. BID×28): 18.5 ± 0.5 g
- body weight loss rate ([1]; D23, 2 mg/kg i.g. BID×28): (−1.0%)
- Mean animal body weight ([1]; D23, 6 mg/kg i.g. BID×28): 18.1 ± 0.5 g
- body weight loss rate ([1]; D23, 6 mg/kg i.g. BID×28): (−2.7%)
- Mean animal body weight ([1]; D23, 18 mg/kg i.g. BID×28): 18.0 ± 0.4 g
- body weight loss rate ([1]; D23, 18 mg/kg i.g. BID×28): (−0.42%)
- Mean animal body weight ([1]; D27, 2 mg/kg i.g. BID×28): 18.7 ± 0.5 g
- body weight loss rate ([1]; D27, 2 mg/kg i.g. BID×28): (−2.5%)
- Mean animal body weight ([1]; D27, 6 mg/kg i.g. BID×28): 18.3 ± 0.5 g
- body weight loss rate ([1]; D27, 6 mg/kg i.g. BID×28): (−3.7%)
- Mean animal body weight ([1]; D27, 18 mg/kg i.g. BID×28): 18.1 ± 0.3 g
- body weight loss rate ([1]; D27, 18 mg/kg i.g. BID×28): (−1.0%)
- Mean animal body weight ([1]; D30, 2 mg/kg i.g. BID×28): 18.9 ± 0.4 g
- body weight loss rate ([1]; D30, 2 mg/kg i.g. BID×28): (−3.4%)
- Mean animal body weight ([1]; D30, 6 mg/kg i.g. BID×28): 18.3 ± 0.4 g
- body weight loss rate ([1]; D30, 6 mg/kg i.g. BID×28): (−4.0%)
- Mean animal body weight ([1]; D30, 18 mg/kg i.g. BID×28): 18.4 ± 0.4 g
- body weight loss rate ([1]; D30, 18 mg/kg i.g. BID×28): (−2.7%)
- Mean animal body weight ([1]; D34, 2 mg/kg i.g. BID×28): 19.3 ± 0.5 g
- body weight loss rate ([1]; D34, 2 mg/kg i.g. BID×28): (−5.8%)
- Mean animal body weight ([1]; D34, 6 mg/kg i.g. BID×28): 18.5 ± 0.4 g
- body weight loss rate ([1]; D34, 6 mg/kg i.g. BID×28): (−5.1%)
- Mean animal body weight ([1]; D34, 18 mg/kg i.g. BID×28): 18.7 ± 0.4 g
- body weight loss rate ([1]; D34, 18 mg/kg i.g. BID×28): (−4.3%)
- Mean animal body weight ([1]; D37, 2 mg/kg i.g. BID×28): 19.5 ± 0.5 g
- body weight loss rate ([1]; D37, 2 mg/kg i.g. BID×28): (−6.5%)
- Mean animal body weight ([1]; D37, 6 mg/kg i.g. BID×28): 18.6 ± 0.4 g
- body weight loss rate ([1]; D37, 6 mg/kg i.g. BID×28): (−5.8%)
- Mean animal body weight ([1]; D37, 18 mg/kg i.g. BID×28): 18.8 ± 0.4 g
- body weight loss rate ([1]; D37, 18 mg/kg i.g. BID×28): (−4.8%)
- Mean animal body weight ([1]; D44, 2 mg/kg i.g. BID×28): 19.2 ± 0.6 g
- body weight loss rate ([1]; D44, 2 mg/kg i.g. BID×28): (−5.2%)
- Mean animal body weight ([1]; D44, 6 mg/kg i.g. BID×28): 19.0 ± 0.5 g
- body weight loss rate ([1]; D44, 6 mg/kg i.g. BID×28): (−8.0%)
- Mean animal body weight ([1]; D44, 18 mg/kg i.g. BID×28): 19.1 ± 0.4 g
- body weight loss rate ([1]; D44, 18 mg/kg i.g. BID×28): (−6.9%)
- effect on body weight compared with blank control group ([1]; NCI-N87 tumor-bearing nude mice, summary of Table 6): no significant effect
- BUN (mmol/L) Mean ± SE ([2]; 18 mg/kg): 22.51 ± 1.24 mmol/L
- BUN (mmol/L) Mean ± SE ([2]; 36 mg/kg): 22.69 ± 1.17 mmol/L
